Assay results from PMC12064818, “A general assay platform to study protein pharmacology using ligand-dependent structural dynamics” (Nature Communications, 2025).

target: T1, FLuc-C-HiBiT (Photinus pyralis, UniProt P08659); assay: biochemical; conditions: enzyme activity, 10 uM ATP; read-out: IC50 or SDR50 (mM) / FLuc E
T1 construct: firefly luciferase with C-terminal HiBiT tag, E. coli expressed
T1 sequence (P08659 whole entry, looked up): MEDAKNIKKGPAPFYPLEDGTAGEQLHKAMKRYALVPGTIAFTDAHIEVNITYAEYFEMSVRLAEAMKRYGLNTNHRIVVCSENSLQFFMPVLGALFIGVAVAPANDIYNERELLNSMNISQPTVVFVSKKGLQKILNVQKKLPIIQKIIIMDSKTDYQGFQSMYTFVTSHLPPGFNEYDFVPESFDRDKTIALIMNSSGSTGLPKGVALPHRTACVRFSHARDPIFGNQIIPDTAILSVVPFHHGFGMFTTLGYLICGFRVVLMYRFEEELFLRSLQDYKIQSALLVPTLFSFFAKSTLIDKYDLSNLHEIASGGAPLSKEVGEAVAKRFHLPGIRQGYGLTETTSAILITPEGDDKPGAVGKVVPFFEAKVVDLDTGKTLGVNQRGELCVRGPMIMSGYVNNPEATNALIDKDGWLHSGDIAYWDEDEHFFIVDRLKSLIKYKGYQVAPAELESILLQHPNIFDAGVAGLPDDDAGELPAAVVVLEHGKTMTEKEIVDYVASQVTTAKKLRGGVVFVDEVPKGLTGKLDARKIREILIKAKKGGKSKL

SMILES | IC50 [µM]
Fc1ccc(NCc2ccccc2-c2nnc(-c3ccccc3Cl)o2)cc1Cl [NCGC00107402-01] | 15.7
COc1ccccc1CNC(=O)c1ccc2nc(N3CCCCC3)sc2c1 [NCGC00113612-01] | > 30
CCc1noc(-c2nc(-c3ccccc3F)no2)n1 [NCGC00450040-01] | 15.7
COc1cccc(Nc2cc3c(cn2)CN(Cc2cccnc2)CCN3)c1 [NCGC00411131-01] | 10.1
c1ccc(Nc2cc3c(cn2)CN(Cc2cc[nH]n2)CCN3)cc1 [NCGC00411115-01] | 16.1
Clc1cccc(-n2ncc3c(N4CCCCC4)ncnc32)c1 [NCGC00139126-01] | 0.989
NC(=O)C1CCN(c2ncnc3c2cnn3-c2cccc(Cl)c2)CC1 [NCGC00139154-01] | > 30
COc1cccc(-c2csc(CN3CCCC(C)(NC(C)=O)C3)c2)c1 (centres unmarked) [NCGC00410342-01] | 20.2
COc1cccc(-c2cccc(COc3cnc4c(ccn4CC(=O)O)c3)c2)c1 [NCGC00418182-01] | 16.1
CCn1ccnc1C1CCN(c2nc3ccccc3s2)CC1 [NCGC00442461-01] | 9.89
CCc1nnc(CC2CCN(C(=O)Nc3ccc4c(c3)OCCO4)CC2)[nH]1 [NCGC00458299-01] | 11.1
Cc1cc2c(c(-c3nc4ccccc4s3)c1)OC(CNC(=O)CCc1cccnc1)C2 (centres unmarked) [NCGC00239520-01] | 17.6
CCc1nc(-c2ccc(OC3CCN(C(=O)C4CC4)C3)cc2)no1 (centres unmarked) [NCGC00440987-01] | 12.4
COc1ccc(-c2nc3c4cnn(-c5ccccc5F)c4ncn3n2)cc1 [NCGC00115088-01] | 0.785
COc1cccc(-c2nc(-c3cccc(C(=O)O)c3)no2)c1 [NCGC00168766-01] | 0.00394
COc1ccc(-c2cc3c(cn2)CN(Cc2ccncc2)CCN3)cc1 [NCGC00411159-01] | 16.1
O=C(c1cc(-c2ccc(F)cc2)nc2ccccc12)N1CCC(Cc2nncn2CC2CC2)CC1 [NCGC00456245-01] | 8.81
Cc1noc(C)c1CN1CCc2nc(C(=O)Nc3ccccc3)oc2CC1 [NCGC00413386-01] | > 30
Cn1ccnc1C(O)c1cc2n(n1)CCN(c1ncnc3[nH]cnc13)C2 (centres unmarked) [NCGC00422809-01] | > 30
COc1ccc2cc(C3CN(C(=O)c4cccc(CO)n4)CCO3)ccc2c1 (centres unmarked) [NCGC00432736-01] | 11.1
Cc1nc(C)c(C(=O)N2CCC(Oc3ccc(-c4noc(-c5ccccc5)n4)cc3)C2)s1 (centres unmarked) [NCGC00440995-01] | 11.1

The next lines start with the values.

IC50 [µM] | SMILES
12.4 | CC(=O)NCCC1CCN(C(=O)Nc2ccc(C)cc2)CC1 [NCGC00424871-01]
17.6 | CC(C)(O)CCc1ccc(C(=O)NCCSc2ccccn2)cc1 [NCGC00435911-01]
12.8 | COc1ccc(-c2cc3c(cn2)CN(C(C)=O)CCN3)cc1 [NCGC00411126-01]
11.1 | CCC(=O)NCCC1CCN(C(=O)Nc2ccc(C)c(F)c2)CC1 [NCGC00425067-01]
15.7 | CCC(CC)C(=O)Nc1cccc(-c2nc3ccccc3s2)c1 [NCGC00119163-01]
16.1 | CC(=O)Nc1cccc(-c2cccc(CCOc3cnc4c(ccn4CC(=O)O)c3)c2)c1 [NCGC00418203-01]
> 30 | COc1ccc(-c2nc3ccccc3s2)cc1NC(=O)COc1cccc(C)c1 [NCGC00102101-01]
9.89 | COc1ccccc1C(=O)Nc1ccc(-c2nc3ccccc3s2)c(C)c1 [NCGC00137840-01]
> 30 | COc1cc(OC)cc(C(=O)Nc2ccc(-c3nc4ccccc4s3)cc2C)c1 [NCGC00103060-01]
18 | CCOCC1(C)COc2ccc(C(=O)Nc3ccccc3)cc2N1 (centres unmarked) [NCGC00416079-01]
6.24 | CCc1ccc(Nc2nc(-c3ccccc3F)no2)cc1 [NCGC00422308-01]
0.7 | COc1ccc(NC(=O)Cn2c(SCc3ccc(C)cc3)nc3cccnc32)cc1OC [NCGC00123978-01]
3.51 | CCOc1ccc(-c2cc(CCCC(=O)NCCc3ccc(OCC)c(OCC)c3)no2)cc1 [NCGC00110850-01]
1.11 | Cc1ccc(NC(=O)Nc2ccc(C)n(CC(=O)NCCC(C)C)c2=O)cc1 [NCGC00430794-01]
